The subject of assay [1] is LCN2 expression in CD8+ T cells. The assay is described as follows: CD8+ T cells cultivated with Panc02 supernatant, FACScan for Lcn2. The format is cell-based. The note with it: 24 h, vs absence of agonist, p<0.001. How it is done: Panc02 cells were cultivated in DMEM for 48 h, then supernatant was harvested and added into CD8+ T cells for further 24 h cultivation in the presence or absence of GLP1(7-36) or GLP1 analogue (Liraglutide) followed by FACScan for Lcn2 determination (FIG. VI(B)-3B).

Assay [2] has the same test system. Briefly: Panc02 cells cocultured with CD8+ T cells, flow cytometry for LCN2. It counts as cell-based. The note with it: coculture with Panc02 for 24 h; vs coculture without GLP1(7-36), p<0.01. As to the method:
Panc02 cells were cocultured with CD8+ T cells with or without GLP1(7-36) for 24 h, then T cells were subjected to flow cytometry for determination of LCN2 expression (FIG. 28A).
(In general: Flow cytometry measures light scatter and fluorescence of single cells or particles in a stream.)

The values that follow come from US20260049337A1, “A R[…] A[…] OF INHIBITING TUMOR P[…] […] TIME IN TUMOR-BEARING I[…] USE THEREOF” (NANJING VIROTHER BIOPHARMACEUTICAL CO., LTD., priority 2022, published 2026).

For the substance “GLP-1(7-36): GLP-1 receptor agonist peptide, SEQ ID NO: 1, HAEGTFTSDVSSYLEGQAAKEFIAWLVKGR”, the “Lcn2 expression in CD8+ T cells” value in assay [1] and in assay [2] was “statistically significantly reduced” in each case.
